Literature values in patent US20140017308A1, “COMPOSITIONS COMPRISING A FATTY ACID OIL MIXTURE, A FREE FATTY ACID, AND A STATIN” (Pronova Biopharma Norge AS, priority 2010, published 2014).

Conditions: in vivo

| half-life | SMILES |
| --- | --- |
| about 0.8 hours | CC[C@H](C)C(=O)O[C@H]1C[C@H](O)C=C2C=C[C@H](C)[C@H](CC[C@@H](O)C[C@@H](O)CC(=O)O)[C@H]21 [pravastatin] |
| 2 to 3 h | CCC(C)(C)C(=O)O[C@H]1C[C@@H](C)C=C2C=C[C@H](C)[C@H](CC[C@@H]3C[C@@H](O)CC(=O)O3)[C@H]21 [simvastatin] |
| about 20 hours | CC(C)c1nc(N(C)S(C)(=O)=O)nc(-c2ccc(F)cc2)c1/C=C/[C@@H](O)C[C@@H](O)CC(=O)O [rosuvastatin] |
